Test results: PubChem BioAssay AID1963954
Activity calls are given as the source filed them.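 Rule for the calls: active = IL-1b release lowered by over 30% against vehicle-treated cells of the same ATG16L1 genotype; inactive = the rest.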

Test system: mouse BMDM IL-1b secretion, LPS+ATP, ELISA
Assay: inhibitors of IL-1b release from macrophages, cell-based, mouse BMDMs, ATG16L1 wt and T300A, LPS+ATP (AID 1963954)
Conditions: at 40 µM, stronger effect = lower value

With `CS(C)=O` the normalized IL-1b secretion (unstimulated, ATG16L1 T300A) was 0.05 (inactive), the normalized IL-1b secretion (unstimulated, ATG16L1 wt) was 0 (inactive) and the normalized IL-1b secretion (with LPS + ATP, ATG16L1 T300A) was 1.39 (inactive). For the same molecule, the normalized IL-1b secretion (with LPS + ATP, ATG16L1 wt) was 1 (inactive).

`CCC(C)(C)C(=O)C(=O)N1CCCC[C@H]1C(=O)N[C@H](CCc1ccc(OC)cc1)C(=O)N1[C@@H]2CC[C@H]1CC(Nc1nc(NCCc3sc(N)nc3C)nc(N3CCn4ncnc4C3)n1)C2` (stereo partly specified) showed a normalized IL-1b secretion (with LPS + ATP, ATG16L1 T300A) of 0.39 and a normalized IL-1b secretion (with LPS + ATP, ATG16L1 wt) of 0.37.
